# Results reported in publication PMC3028607.
# Assay: SmI2-mediated 8-endo-trig ketyl-alkene radical cyclisation (C-C bond between ketone carbon and distal styrene carbon); SmI2 2.2 equiv, HMPA 18 equiv, t-BuOH 2 equiv; substrate added over 2 h, then 16 h
# Settings: THF, 15.0 mM, 22.0 °C
smiles,measurement,setting,value
COC(=O)C1Cc2ccccc2CC(c2ccccc2)C(O)(C(C)C)C1 (stereo not shown) [36 (to 37; 20% SM)],"ring closure, isolated yield","from COC(=O)C(CC(=O)C(C)C)Cc1ccccc1/C=C/c1ccccc1, 8-membered ring",47%
COC(=O)C1Cc2ccccc2CC(C2CC2)C(O)(C(C)C)C1 (stereo not shown) [33 (to 34; 47% fragmentation 35)],"ring closure, isolated yield","from COC(=O)C(CC(=O)C(C)C)Cc1ccccc1/C=C/C1CC1, 8-membered ring",24%
COC(=O)[C@@H]1Cc2ccccc2CCC2(O)CCCCC[C@@H]12 (stereo partly shown) [5a (to 6; 23% SM recovered)],"ring closure, isolated yield","from C=Cc1ccccc1C[C@@H](C(=O)OC)[C@@H]1CCCCCC1=O, 8-membered ring",42%
COC(=O)[C@@H]1Cc2ccccc2CC(C)C2(O)CCCC[C@@H]12 (stereo partly shown),"ring closure, isolated yield","from C/C=C/c1ccccc1C[C@@H](C(=O)OC)[C@@H]1CCCCC1=O, 8-membered ring",11%
COC(=O)C1Cc2ccccc2CC(C)C(O)(C(C)C)C1 (stereo not shown) [30 (to 31; 31% fragmentation 32; 32% SM)],"ring closure, isolated yield","from C/C=C\c1ccccc1CC(CC(=O)C(C)C)C(=O)OC, 8-membered ring",8%
COC(=O)C1Cc2ccccc2CC(C)(C)C(C)(O)C1 (stereo not shown) [41 (no 8-ring; ketyl-aryl 42 14% + 43 7%)],"ring closure, isolated yield","from COC(=O)C(CC(C)=O)Cc1ccccc1C=C(C)C, 8-membered ring",0%
COC(=O)C1Cc2ccccc2C(C)CC(C)(O)C1 (stereo not shown) [4 (to 9 40% + 10 38%)],"ring closure, isolated yield","from C=C(C)c1ccccc1CC(CC(C)=O)C(=O)OC, 8-membered ring",78%
COC(=O)C1Cc2ccccc2C(C)CC(O)(C(C)C)C1 (stereo not shown) [11 (to 12 54% + 13 28%)],"ring closure, isolated yield","from C=C(C)c1ccccc1CC(CC(=O)C(C)C)C(=O)OC, 8-membered ring",82%
COC(=O)C1Cc2ccccc2CC(C)C(O)(C(C)C)C1(C)C (stereo not shown) [(E)-1-propenyl analogue of 14 (only fragmentation)],"ring closure, isolated yield","from C/C=C/c1ccccc1CC(C(=O)OC)C(C)(C)C(=O)C(C)C, 8-membered ring",0%
"COC(=O)C1Cc2ccccc2C(C)CC(O)(C(C)C)C1(C)C (stereo not shown) [14 (only fragmentation 15, 58%)]","ring closure, isolated yield","from C=C(C)c1ccccc1CC(C(=O)OC)C(C)(C)C(=O)C(C)C, 8-membered ring",0%
COC(=O)C1Cc2ccccc2CC(C)C(C)(O)C1 (stereo not shown) [18 (to 19; 20% ketyl-aryl product 20)],"ring closure, isolated yield","from C/C=C/c1ccccc1CC(CC(C)=O)C(=O)OC, 8-membered ring",54%
"COC(=O)[C@@H]1Cc2ccccc2CC(c2ccccc2)C2(O)CCCC[C@H]12 (stereo partly drawn) [38b (no 8-ring; 7-exo lactone 40, 63%)]","ring closure, isolated yield","from COC(=O)[C@H](Cc1ccccc1/C=C/c1ccccc1)[C@H]1CCCCC1=O, 8-membered ring",0%
COC(=O)[C@@H]1Cc2ccccc2C(C)CC2(O)CCCC[C@@H]12 (stereo partly shown) [7a (to 8)],"ring closure, isolated yield","from C=C(C)c1ccccc1C[C@@H](C(=O)OC)[C@@H]1CCCCC1=O, 8-membered ring",63%
CCC1(O)CC(C(=O)OC)Cc2ccccc2CC1C (stereo not shown) [21 (to 22; 6% fragmentation 23)],"ring closure, isolated yield","from C/C=C/c1ccccc1CC(CC(=O)CC)C(=O)OC, 8-membered ring",56%
COC(=O)[C@@H]1Cc2ccccc2CC(C)C2(O)CCCC[C@H]12 (stereo partly shown) [26b (to lactone 29; 27% fragmentation 23; 40% SM)],"ring closure, isolated yield","from C/C=C/c1ccccc1C[C@@H](C(=O)OC)[C@H]1CCCCC1=O, 8-membered ring",9%
COC(=O)[C@@H]1Cc2ccccc2CCC2(O)CCCCC[C@H]12 (stereo partly shown) [5b (no product; 62% SM recovered)],"ring closure, isolated yield","from C=Cc1ccccc1C[C@@H](C(=O)OC)[C@H]1CCCCCC1=O, 8-membered ring",0%
COC(=O)C1Cc2ccccc2CC(C)C(O)(C(C)C)C1 (stereo not shown) [24 (to 25)],"ring closure, isolated yield","from C/C=C/c1ccccc1CC(CC(=O)C(C)C)C(=O)OC, 8-membered ring",63%
"COC(=O)[C@@H]1Cc2ccccc2CC(c2ccccc2)C2(O)CCCC[C@@H]12 (stereo partly drawn) [38a (no 8-ring; 7-exo product 39, 44%)]","ring closure, isolated yield","from COC(=O)[C@H](Cc1ccccc1/C=C/c1ccccc1)[C@@H]1CCCCC1=O, 8-membered ring",0%
COC(=O)C1Cc2ccccc2C(c2ccccc2)CC(O)(C(C)C)C1 (stereo not shown) [16 (to 17a 37% + 17b 22%)],"ring closure, isolated yield","from C=C(c1ccccc1)c1ccccc1CC(CC(=O)C(C)C)C(=O)OC, 8-membered ring",59%
